Measurements: patent US10314307B2, “(S)-abscisic acid derivatives for improving plant stress tolerance” (Valent BioSciences Corporation, priority 2015, dated 2019)

Tests used:
Type in all cases: in vivo
[1] = test system: corn plants, 111 day, central corn belt variety; experiment: Corn plant chilling (growth rate); conditions: for Maintenance of growth under cold (10° C.) conditions: S-ABA even at 1000 mg/l (113.7 g/acre); for Growth Rate, Greenhouse 7-9 d post spray: after chilling; for Growth Rate, Growth Chamber 10° C. 2-7 d post spray: during chilling at 10° C.; for Leaf area: in one of two studies, not repeatable across studies, 3′-methyl-(S)-abscisic acid at 30, 100 and 300 mg/liter
Protocol: Corn seeds of a 111 day, central corn belt variety were planted in 2-quart pots filled with medium. After the corn grew for 10 days in the greenhouse at 24±3° C. (V2 to V3 growth stage), the plants received a foliar spray application of aqueous solutions of the test compounds containing 0.25% non-ionic surfactant with a volume equivalent to 30 gallons/acre. After spraying, plants were moved back to the greenhouse for 2 days, then moved to a growth chamber kept at 10° C. with a 16:8 light:dark cycle (cold treatment). After 5 days in the cold, plants were returned to the greenhouse for 2 days before being harvested destructively. Results of the studies comparing the growth rate of plants treated with S-ABA with 3′-methyl-(S)-ABA during the experiment are shown in Table 3. In additional studies, the effect of S-ABA and 3′-propargyl-(S)-ABA on corn growth rate in chilling studies was compared.

[2] = test system: corn plants, commercial 111 day, central corn belt variety; experiment: Corn stomatal conductance; conditions: for Average Stomatal Conductance (% of Control), 6 DAS: 6 days after spraying; for Average Stomatal Conductance (% of Control), 16 DAS: 16 days after spraying
Protocol: (§1) In this greenhouse experiment, foliar spray treatments containing 3′-methyl-(S)-abscisic acid, 3′-propargyl-(S)-abscisic acid or (S)-abscisic acid were applied to corn plants to evaluate their effect on gas exchange, as measured through stomatal conductance. Corn plants of a commercial, 111 day, central corn belt variety were grown in the greenhouse under optimal conditions for five weeks and were size-matched into ten groups of five plants. Using an aerosol sprayer, each group was sprayed to drip (25 milliliters per plant) with solutions containing a non-ionic surfactant (0.125%, v/v) and water (control), 2.5 mg, 7.5 mg or 25 mg/plant 3′-methyl-(S)-abscisic acid, or 2.5 mg, 7.5 mg or 25 mg/plant 3′-propargyl-(S)-abscisic acid, or 7.5 mg, 25 mg or 75 mg/plant (5)-ABA, respectively. After spraying, plants were returned to the greenhouse for the duration of the experiment. Stomatal conductance was measured using an AP4 porometer (Delta T Devices, Cambridge, UK) and the conductance for each plant was recorded at approximately the same time of day (˜10 AM) prior to treatment application as well as 1, 2, 5, 6, 9 and 16 days post-spraying.

[3] = test system: corn plants, commercial 111 day, central corn belt variety; experiment: Corn plant leaf rolling assay and shoot fresh weight under drought; conditions: for Shoot Fresh Weight, 15 DAS: 12 days drought then 3 days watering; for Average # of Rolled Leaves/Plant, 5 DAS / Average # of Rolled Leaves/Plant, 6 DAS / Average # of Rolled Leaves/Plant, 8 DAS: water withheld; for Average # of Rolled Leaves/Plant, 5 DAS: 5 days after spraying; for Average # of Rolled Leaves/Plant, 6 DAS: 6 days after spraying; for Average # of Rolled Leaves/Plant, 8 DAS: 8 days after spraying
Protocol: as §1, with “post-spraying. This study was conducted as described above with the following the exceptions. After spraying, plants were put back in the greenhouse and water was withheld for twelve days, simulating drought stress. The plants were then watered to saturation for three consecutive days before the plant shoots were cut at the soil surface and subsequently weighed in grams (fresh weight). Leaf-rolling data and fresh weight data were recorded for each plant following treatment application at the times specified below in Table 6.” for “post-spraying.”

[4] = test system: soybean plants; experiment: Soybean drought tolerance (stomatal conductance)
Protocol: In this study, soybean plants were grown for 10 days under ambient lab temperature conditions and illumination of 150 umol m^2 s^−1 and a 16:8 photoperiod. At spraying, the primary leaves were fully expanded and the first trifoliate leaves were partially expanded. The plants were sprayed to dampness with solutions of water, S-ABA, 3′-methyl-(S)-abscisic acid, or 3′-propargyl-(S)-abscisic acid containing 0.025% (v/v) non-ionic surfactant. At times following spraying, the conductance of the primary leaves was measured using an AP4 porometer (Delta T Devices, Cambridge, UK) to evaluate the effect on stomatal conductance. A decrease in stomatal aperture, reflected in the conductance measures, is an immediate and direct effect of applied S-ABA. To simplify the data, the controls were always set to 100%. In Table 9, the effect of spray applications on the stomatal conductance was measured.

[5] = Table 3 study, foliar spray 1000 mg/l (113.7 g/acre)
[6] = Table 3 study, foliar spray 1000 mg/l (113.7 g/acre), before chilling
[7] = Table 4 study, foliar spray 1000 mg/l (113.7 g/acre)
[8] = foliar spray 300 ppm or 7.5 mg/plant
[9] = foliar spray 1000 ppm or 25 mg/plant
[10] = foliar spray 3000 ppm or 75 mg/plant
[11] = foliar spray 300 mg/l, 0.3 mg/plant
[12] = foliar spray 1000 mg/l, 1.0 mg/plant
[13] = Table 3 study, foliar spray 30 mg/l (3.4 g/acre)
[14] = Table 3 study, foliar spray 100 mg/l (11.4 g/acre)
[15] = Table 3 study, foliar spray 300 mg/l (34.1 g/acre)
[16] = foliar spray 100 ppm or 2.5 mg/plant

Structure (SMILES): CC1=CC(=O)CC(C)(C)[C@@]1(O)/C=C/C(C)=C/C(=O)O [S-ABA, (S)-abscisic acid]
- Growth during stress recovery following cold ([1]; 3′-propargyl-(S)-ABA particularly between 11.4 and 113.7 g/acre, S-ABA at rates up to 1000 mg/liter (113.7 g/acre)): did not aid recovery growth
- Maintenance of growth under cold (10° C.) conditions [1]: did not maintain growth
- Growth Rate, Greenhouse 7-9 d post spray [1, 5]: 3.270 cm/day
- Growth Rate, Greenhouse 0-2 d post spray [1, 6]: 4.315 cm/day
- Growth Rate, Growth Chamber 10° C. 2-7 d post spray [1, 5]: 0.766 cm/day
- Growth Rate, Greenhouse 7-9 d post spray [1, 7]: 2.161 cm/day
- Growth Rate, Greenhouse 0-2 d post spray ([1]; Table 4 study, foliar spray 1000 mg/l (113.7 g/acre), before chilling): 3.156 cm/day
- Growth Rate, Growth Chamber 10° C. 2-7 d post spray [1, 7]: 1.249 cm/day
- Leaf area [1]: increased
- Average Stomatal Conductance (% of Control), 6 DAS [2, 8]: 88.5 % of Control
- Average Stomatal Conductance (% of Control), 16 DAS [2, 8]: 89.3 % of Control
- Average Stomatal Conductance (% of Control), 6 DAS [2, 9]: 83.7 % of Control
- Average Stomatal Conductance (% of Control), 16 DAS [2, 9]: 88.0 % of Control
- Average Stomatal Conductance (% of Control), 6 DAS [2, 10]: 61.3 % of Control
- Average Stomatal Conductance (% of Control), 16 DAS [2, 10]: 62.5 % of Control
- Shoot Fresh Weight, 15 DAS ([3]; 300 ppm or 7.5 mg/plant): 258.9 grams
- Average # of Rolled Leaves/Plant, 5 DAS ([3]; 300 ppm or 7.5 mg/plant): 2.8
- Average # of Rolled Leaves/Plant, 6 DAS ([3]; 300 ppm or 7.5 mg/plant): 2.6
- Average # of Rolled Leaves/Plant, 8 DAS ([3]; 300 ppm or 7.5 mg/plant): 8.4
- Shoot Fresh Weight, 15 DAS ([3]; 1000 ppm or 25 mg/plant): 282.5 grams
- Average # of Rolled Leaves/Plant, 5 DAS ([3]; 1000 ppm or 25 mg/plant): 1.2
- Average # of Rolled Leaves/Plant, 6 DAS ([3]; 1000 ppm or 25 mg/plant): 3.0
- Average # of Rolled Leaves/Plant, 8 DAS ([3]; 1000 ppm or 25 mg/plant): 8.8
- Shoot Fresh Weight, 15 DAS ([3]; 3000 ppm or 75 mg/plant): 301.7 grams
- Average # of Rolled Leaves/Plant, 5 DAS ([3]; 3000 ppm or 75 mg/plant): 0.0
- Average # of Rolled Leaves/Plant, 6 DAS ([3]; 3000 ppm or 75 mg/plant): 0.2
- Average # of Rolled Leaves/Plant, 8 DAS ([3]; 3000 ppm or 75 mg/plant): 7.2
- Effectiveness at reducing leaf rolling ([3]; S-ABA 75 mg/plant compared with 25 mg of the derivatives): as effective at reducing leaf rolling as 25 mg of 3′-methyl-(S)-abscisic acid, or 3′-propargyl-(S)-abscisic acid
- Reduction in stomatal conductance at 1 day post spraying ([4]; 300 mg/l foliar spray): 58%
- Time of 50% recovery of the control conductance ([4]; 300 mg/l foliar spray): ≤ 2 days
- Time of greater than 50% recovery of the control conductance ([4]; 1000 mg/l foliar spray): 5 days
- Percent Conductance (stomatal conductance, control = 100%), Day 1 [4, 11]: 42%
- Percent Conductance (stomatal conductance, control = 100%), Day 2 [4, 11]: 56%
- Percent Conductance (stomatal conductance, control = 100%), Day 5 [4, 11]: 80%
- Percent Conductance (stomatal conductance, control = 100%), Day 6 [4, 11]: 108%
- Percent Conductance (stomatal conductance, control = 100%), Day 7 [4, 11]: 122%
- Percent Conductance (stomatal conductance, control = 100%), Day 1 [4, 12]: 27%
- Percent Conductance (stomatal conductance, control = 100%), Day 2 [4, 12]: 32%
- Percent Conductance (stomatal conductance, control = 100%), Day 5 [4, 12]: 58%
- Percent Conductance (stomatal conductance, control = 100%), Day 6 [4, 12]: 80%
- Percent Conductance (stomatal conductance, control = 100%), Day 7 [4, 12]: 118%

Structure (SMILES): CC1=C(C)[C@](O)(/C=C/C(C)=C\C(=O)O)C(C)(C)CC1=O [3′-methyl-(S)-ABA, (2Z,4E)-5-((S)-1-hydroxy-2,3,6,6-tetramethyl-4-oxocyclohex-2-en-1-yl)-3-methylpenta-2,4-dienoic acid]
- Maintenance of growth under cold (10° C.) conditions [1]: maintained growth
- Growth Rate, Greenhouse 7-9 d post spray [1, 13]: 2.650 cm/day
- Growth Rate, Greenhouse 0-2 d post spray ([1]; Table 3 study, foliar spray 30 mg/l (3.4 g/acre), before chilling): 3.725 cm/day
- Growth Rate, Growth Chamber 10° C. 2-7 d post spray [1, 13]: 1.092 cm/day
- Growth Rate, Greenhouse 7-9 d post spray [1, 14]: 2.795 cm/day
- Growth Rate, Greenhouse 0-2 d post spray ([1]; Table 3 study, foliar spray 100 mg/l (11.4 g/acre), before chilling): 4.290 cm/day
- Growth Rate, Growth Chamber 10° C. 2-7 d post spray [1, 14]: 1.084 cm/day
- Growth Rate, Greenhouse 7-9 d post spray [1, 15]: 3.565 cm/day
- Growth Rate, Greenhouse 0-2 d post spray ([1]; Table 3 study, foliar spray 300 mg/l (34.1 g/acre), before chilling): 3.645 cm/day
- Growth Rate, Growth Chamber 10° C. 2-7 d post spray [1, 15]: 0.990 cm/day
- Growth Rate, Greenhouse 7-9 d post spray [1, 5]: 2.945 cm/day
- Growth Rate, Greenhouse 0-2 d post spray [1, 6]: 3.615 cm/day
- Growth Rate, Growth Chamber 10° C. 2-7 d post spray [1, 5]: 1.160 cm/day
- Plant growth initially following spraying ([1]; before chilling): initially suppressed
- Leaf area [1]: increased
- Average Stomatal Conductance (% of Control), 6 DAS [2, 16]: 93.3 % of Control
- Average Stomatal Conductance (% of Control), 16 DAS [2, 16]: 98.3 % of Control
- Average Stomatal Conductance (% of Control), 6 DAS [2, 8]: 70.6 % of Control
- Average Stomatal Conductance (% of Control), 16 DAS [2, 8]: 79.4 % of Control
- Average Stomatal Conductance (% of Control), 6 DAS [2, 9]: 69.6 % of Control
- Average Stomatal Conductance (% of Control), 16 DAS [2, 9]: 74.5 % of Control
- Relative potency resulting in a 25% reduction in transpiration, times that seen with S-ABA ([2]; regression of the data in Table 5): 1.97 times
- Shoot Fresh Weight, 15 DAS ([3]; 100 ppm or 2.5 mg/plant): 256.0 grams
- Average # of Rolled Leaves/Plant, 5 DAS ([3]; 100 ppm or 2.5 mg/plant): 1.6
- Average # of Rolled Leaves/Plant, 6 DAS ([3]; 100 ppm or 2.5 mg/plant): 4.6
- Average # of Rolled Leaves/Plant, 8 DAS ([3]; 100 ppm or 2.5 mg/plant): 9.0
- Shoot Fresh Weight, 15 DAS ([3]; 300 ppm or 7.5 mg/plant): 276.6 grams
- Average # of Rolled Leaves/Plant, 5 DAS ([3]; 300 ppm or 7.5 mg/plant): 2.0
- Average # of Rolled Leaves/Plant, 6 DAS ([3]; 300 ppm or 7.5 mg/plant): 3.6
- Average # of Rolled Leaves/Plant, 8 DAS ([3]; 300 ppm or 7.5 mg/plant): 8.4
- Shoot Fresh Weight, 15 DAS ([3]; 1000 ppm or 25 mg/plant): 373.4 grams
- Average # of Rolled Leaves/Plant, 6 DAS ([3]; 1000 ppm or 25 mg/plant): 2.2
- Average # of Rolled Leaves/Plant, 8 DAS ([3]; 1000 ppm or 25 mg/plant): 7.2
- Reduction in stomatal conductance at 1 day post spraying ([4]; 300 mg/l foliar spray): 89%
- Percent Conductance (stomatal conductance, control = 100%), Day 1 [4, 11]: 11%
- Percent Conductance (stomatal conductance, control = 100%), Day 2 [4, 11]: 18%
- Percent Conductance (stomatal conductance, control = 100%), Day 5 [4, 11]: 36%
- Percent Conductance (stomatal conductance, control = 100%), Day 6 [4, 11]: 68%
- Percent Conductance (stomatal conductance, control = 100%), Day 7 [4, 11]: 79%
